These results are taken from PMC8157947, “Peptidic boronic acids are potent cell-permeable inhibitors of the malaria parasite egress serine protease SUB1” (Proceedings of the National Academy of Sciences of the …, 2021).

Molecules are shown by their SMILES.

A word on the EC50: it is the concentration giving half of the maximal effect.

Data set [1] deals with P. falciparum 3D7 schizonts. The data set can be described thus: Short-term egress/invasion assay, ring formation by flow cytometry. In kind it is cell-based, Plasmodium falciparum. As for the experimental part: For this, P. falciparum cultures containing synchronous, highly mature schizonts were supplemented with compounds 3b, 3e, 3i, and 3j at a range of dilutions, then allowed to undergo egress and invasion for just 4 h in the continued presence of the compounds, before assessing formation of newly invaded “ring” stage parasites by flow cytometry.
(§1) Short-term egress, invasion, and washout assays were performed essentially as described previously ([27], [28], [42]). Briefly, highly synchronous mature Percoll-enriched schizonts with or without added fresh RBCs (∼5% parasitaemia final) were incubated with compounds under test or vehicle only (DMSO, 1% vol/vol). For washout assays, schizonts were treated with C2 or various concentrations of inhibitor 3j for 1 to 4 h, then washed extensively (at least four times) prior to addition to fresh RBCs where required. After incubation at 37 °C for just 1 to 4 h (or overnight for invasion assays) to allow schizont rupture, cells were pelleted. Clarified culture supernatants were assessed for extent of hemoglobin release (a measure of schizont rupture) by absorption spectroscopy at 415 nm as described previously ([28]) or analyzed by Western blot using antibodies against SERA5 ([7], [11]). To quantify generation of new rings, samples of the cultures were fixed with 4% paraformaldehyde/0.02% glutaraldehyde and stained with SYBR Green I (Life Technologies) and then analyzed by flow cytometry on a BD FACSVerse using BD FACSuite software. Data were analyzed using FlowJo software. All cultures were also routinely analyzed by microscopic examination of Giemsa-stained thin films to visually assess parasite morphology.

Data set [2] has as its system P. falciparum schizonts. Kind of data set: MitoTracker Red CMXRos viability staining. It counts as cell-based, Plasmodium falciparum. As to conditions: 10 μM, 1 h. As for the experimental part: Viewing chambers for live parasite microscopic examination were constructed as previously described ([7]). All images were recorded on a Nikon Eclipse Ni light microscope fitted with a Hamamatsu C11440 digital camera and Nikon N Plan Apo λ 63×/1.45NA oil immersion objective. For time-lapse video microscopy, differential interference contrast (DIC) images were taken at 10 s intervals over 30 min while fluorescence (mNeon Green) images were taken every 2 min to prevent bleaching. Time-lapse videos were analyzed and annotated using Fiji ([44]). For viability staining using the vital mitochondrial dye MitoTracker Red CMXRos (ThermoFisher Scientific; stored as a 10 μM stock in DMSO), the dye was added (20 nM final concentration) to a suspension of schizonts pretreated for 1 h with either DMSO (control, 1% vol/vol) or compound 3j (10 μM). The schizonts were incubated with the dye for 15 min at 37 °C, then washed twice, transferred to a viewing chamber, and observed immediately by dual DIC/fluorescence microscopy.

Data set [3] has as its system asexual blood-stage P. falciparum (clone 3D7). Kind of data set: SYBR Green I parasite growth assay. It counts as cell-based, Plasmodium falciparum. As for the experimental part:
The impact of the peptidic boronic acids on replication of asexual blood-stage P. falciparum (clone 3D7) was assessed using a SYBR Green I assay, essentially as described by Smilkstein et al. ([22]). Briefly, test compounds (dissolved in dimethyl sulfoxide [DMSO] at concentrations ranging from 4 mM to 5 μM) were added in triplicate to wells of flat bottomed, 96-well microtitre plates (1 μL per well). Wells were then supplemented with 100 μL per well of a P. falciparum parasite culture at 0.1% parasitaemia, 1% hematocrit. Each assay plate also included DMSO-only control wells (1% vol/vol), as well as additional control wells containing uninfected RBCs only. Plates were incubated in sealed, humidified gassed chambers at 37 °C for 96 h to allow the parasites to undergo two entire cycles of erythrocytic growth. Wells were then supplemented with 100 μL 1:5,000 dilution of stock SYBR Green I (Life Technologies, catalog no. S7563) diluted in 20 mM Tris HCl pH 7.5, 5 mM EDTA, 0.008% (weight/vol) saponin, 0.08% (vol/vol) Triton ×100. Plates were agitated to mix, incubated for a further 1 h in the dark at room temperature, then 150 μL samples from each well transferred to a fresh white microwell plate and fluorescence quantified using a SpectraMax M5e plate reader and SoftMax Pro-6.3 software (Ex 485 nm/Em 530 nm). IC50 values were determined from dose–response curves obtained after subtracting background fluorescence values (obtained from the RBC-only wells) from all experimental readings.

The subject of another data set is elastase. Kind of data set: Elastase inhibition assay (MeOSuc-AAPV-AMC cleavage). It counts as biochemical. As to conditions: porcine elastase; estimated. As for the experimental part: Assays for assessing inhibition of elastase a c t i vit y (from porcine pancreas; Sigm a-Aldrich E7885) were based on c leavage of the fluorogenic peptide substrate MeOSuc-AAPV-AMC (Sigm a- Aldrich […]
324740). Elastase was dissolved in 1 m M HCl, 2 m M CaCl2 to produce a stock solutio n of 1 mg/ml […]
(38.6 µM). F or inhibition as says , 100 µl of 1 µg/m l (38.6 nM) elastase in 25 m M T ris -HCl pH 8.2, […]
15 m M CaC l2 was d ispense d into we lls of whit e 9 6- we ll m icrowe ll p lates (Nunc), and pre- incubated […]
for 5 m in wi th com pound 3j at concentr ations ranging from 0-20 µM before addition of substrate […]
(10 µM f inal). F luorescence increase was m onitored continuousl y with tim e as above. PMSF was used as a positive inh ib itor control as above. All m easurem ents were perform ed in duplicate.

The subject of data set [4] is P. falciparum schizonts. The data set can be described thus: Washout egress assay, hemoglobin release into culture supernatants. As to conditions: Plasmodium falciparum; 4 h pretreatment, then washout. It counts as cell-based. As for the experimental part:
as §1

Take `CC(=O)NC(C(=O)NC(C(=O)NCC(=O)NC(C)B(O)O)C(C)C)C1CCCC1` (centres unmarked) [3j]: the “schizont phenotype in Giemsa-stained thin films” value in data set [1] (10 μM, 4 h incubation) is “arrest of unruptured schizonts with no ring formation”. Also, the EC50 was 2500 ± 300 nM in data set [1] (Plasmodium falciparum, mature 3D7 schizonts with RBCs, 4 h, flow cytometry); 0.26 ± 0.06 µM in data set [3] (Plasmodium falciparum, 3D7, 96 h, two erythrocytic growth cycles, SYBR Green I); roughly 2000 nM with P. falciparum schizonts [4]. The “viability (MitoTracker Red CMXRos incorporation)” value in the data set with P. falciparum schizonts [2] is “remained viable”. The “improved growth inhibitory potency” value in data set [3] (relative to compound 3b) is reported as roughly 10 fold. The “higher potency in long-term growth assay” value in data set [3] (relative to short-term egress assays) is roughly 10 fold. For the same compound, in the data set with elastase, the “elastase IC50 relative to that for PfSUB1” value is greater than 100 fold.
